Laboratory results taken from US20260151517A1, “SOMATOSTATIN RECEPTOR-TARGETING RADIOPHARMACEUTICALS AND USES THEREOF” (Nuclidium AG, priority 2024, published 2026).
*1 amine or outer side, *2 acyl side, *3 side chain or, on linkers, in order; H or OH if unused. Where a SMILES comes first, the peptide text is derived from it. Bridges are numbered along the chain shown (N, C = ends). [ ]: non-standard residue; d: D form. The star is where a group is joined. NODAGA = O=C(O)CN1CCN(CC(=O)O)CCN(C(CCC(=O)*)C(=O)O)CC1; X1 = NC(=O)Nc1ccc(CC(N[*:1])C(=O)[*:2])cc1; Phe(4-Cl) = N[CH](Cc1ccc(Cl)cc1)C(=O)O

Legend:
[1] = type: physicochemical; settings: pH 7.4
Protocol: The mixture was vortexed for 30 min and then centrifuged at 3000 rpm to achieve phase separation. Aliquots from each phase were collected and measured in a gamma counter. The distribution coefficient was calculated as the average logarithmic values of the ratio between the radioactivity in the organic and the PBS phase.

[2] = tested on: well-differentiated BP and GEP neuroendocrine tumors (NET); assay: Human clinical trial, PET/CT imaging vs [^68Ga]Ga-DOTATOC PET/CT; type: in vivo; settings: Subjects 1-4 and 6
Protocol: The study will be a prospective, open-label, controlled, reader-blind, single center, phase I/II PET/CT study.
The study product will be a single intravenous administration of GMP produced [^61Cu]Cu-NODAGA-LM3 followed by up to three PET/CT acquisitions. [^61Cu]Cu-NODAGA-LM3 will be administered once intravenously at an amount of 20-40 μg (or 13-26 nmol) and an activity range of 150 MBq (±25%).
The control intervention will be [^68Ga]Ga-DOTA-TOC PET/CT (150 MBq (±25%)) (including CE-CT), is acquired as standard of care and not part of the study, but scan results will be used as comparator for the diagnostic efficacy analysis (Phase II).
The diagnostic efficacy analysis (sensitivity, tumor uptake and image contrast (TBR), will be done in comparison with [^68Ga]Ga-DOTA-TOC PET/CT acquired as standard of care in a randomized, cross-over order. Readers of the scans will be blinded for imaging time point, tracers and clinical data and will follow a locked-read methodology. Number of Participants and Rationale: n=27 patients (including 22 patients for the sensitivity analysis powered for both superiority and non-inferiority design and 5 patients with negative [^68Ga]Ga-DOTATOC PET/CT and a positive NETest) […]

For `CC(O)C1NC(=O)C(CCCCN)NC(=O)C(Cc2ccc(NC(N)=O)cc2)NC(=O)C(Cc2ccc(O)cc2)NC(=O)C(NC(=O)C(Cc2ccc(Cl)cc2)NC(=O)CCC(C(=O)O)N2CCN(CC(=O)O)CCN(CC(=O)O)CC2)CSSCC(C(=O)NC(Cc2ccc(O)cc2)C(N)=O)NC1=O` (centres unmarked) [[^61Cu]Cu-NODAGA-LM3, metal not drawn] ({NODAGA}-[Phe(4-Cl)]CY[X1]KTCY-NH2; disulfide 2-7; configuration not given here), the logD [1] was -2.95 ± 0.08 and the “physiological uptake in the liver, spleen, and GI tract” value [2] was “very low physiological uptake”.
